Legend:
[1] = tested on: Aspergillus brasiliensis (ATCC 16404) spores; experiment: Liquid disinfection process in AER basin, indicator device not connected to the pump; spore viability in malt extract broth; assay type: cell-based; details: 0.35% OPA (minimum effective concentration), 5 minute contact at 25 C, two rinses with purified water; approx. 1x10^6 spores on carrier; broth incubated 7 days at 30 C
Method: (§1) Aspergillus brasiliensis (ATCC 16404) was inoculated onto the surface of a potato dextrose agar culture and incubated 14 days at 25-30° C. After the incubation period, the surface of the plate was flooded with an aqueous solution of glycerol (10% v/v) and Tween 20 detergent (0.05% v/v). The viable fungal spore population was determined by standard plate counting method using PETRIFILM™ Rapid Yeast and Mold Count Plates (RYM) obtained from 3M Company (St. Paul, Minn.). The plates were incubated at 28-30° C. for 2-3 days. The resulting spore suspension was stored at −80 degrees C. until use.
(§2) The spore suspension was diluted in water to a concentration of approximately 10^8 spores/mL. Ten microliters (approximately 1×10^6 spores) of the diluted spore suspension was pipetted onto a circular disc (approximately 0.25 inch (6.4 mm) diameter) nonwoven carrier material (Sontara® grade 8005 nonwoven material obtained from Dupont (Candler, N.C.)). The spore-coated discs were allowed to dry for 24 hours at room temperature before assembling the indicator device.
(§3) Indicator devices were made by inserting aerosol-filter pipet tips (Part #16466-008; sterile aerosol 1000 uL pipet tips; VWR; Radnor, Pa.) into a piece of hollow tubing (Part #14-169-7C; PVC tubing, 0.25-inch (6.4 mm) inner diameter; Fisher Scientific; Waltham, Mass.), as shown in FIGS. 13-14. […]

[2] = tested on: Aspergillus brasiliensis (ATCC 16404) spores; experiment: Flow-through disinfection, indicator device connected to the AER flow pump system; spore viability in malt extract broth; assay type: cell-based; details: 0.35% OPA at 25 C pumped through device at approx. 25 ml/min, incubated up to 7 days, duplicate devices
Method: as §1, §2, §3

Measured: growth of spores in malt extract broth after contact with the liquid disinfectant

O=Cc1ccccc1C=O [OPA, ortho-phthalaldehyde]
No growth: [1] | [2]; 30 seconds contact | [2]; 5 minutes contact

— patent US20220047752A1, “BIOLOGICAL INDICATOR FOR DISINFECTION PROCESS CHALLENGE DEVICE” (3M INNOVATIVE PROPERTIES COMPANY, priority 2016, published 2022)
